In article PMC4441267:

Assay: RuAAC macrocyclisation of azide/terminal alkyne linear peptidomimetics to 1,5-triazole ([Cp*RuCl]4 0.1 eq, Ar-degassed), then Boc removal (TMSCl/MeOH GP4 or HCl/dioxane GP5)
Details: toluene (reflux), 1.25 mM, 111.0 °C, 18.0 h, 2 steps

Structure (SMILES): COC(=O)[C@@H]1CCCn2nncc2CNC(=O)NC[C@H](N)C(=O)N1 [Boc-Dap(CONH-propargyl)-Orn(N3)-OMe]
- ring closure, yield over several steps (from C#CCNC(=O)NC[C@H](NC(=O)OC(C)(C)C)C(=O)N[C@@H](CCCN=[N+]=[N-])C(=O)OC, 14-membered ring): 80%

Structure (SMILES): COC(=O)[C@@H]1Cc2ccc(cc2)-n2nncc2CNC(=O)NC[C@H](N)C(=O)N1 [Boc-Dap(CONH-propargyl)-Phe(4-N3)-OMe]
- ring closure, yield over several steps (from C#CCNC(=O)NC[C@H](NC(=O)OC(C)(C)C)C(=O)N[C@@H](Cc1ccc(N=[N+]=[N-])cc1)C(=O)OC, 16-membered ring): 27%

Structure (SMILES): COC(=O)[C@@H]1CNC(=O)[C@H](Cc2ccccc2)n2nncc2CCC(=O)NCCCC[C@H](N)C(=O)N1 [Boc-Lys(4-pentynoyl)-Dap(N3-Phe)-OMe]
- ring closure, yield over several steps (from C#CCCC(=O)NCCCC[C@H](NC(=O)OC(C)(C)C)C(=O)N[C@@H](CNC(=O)[C@H](Cc1ccccc1)N=[N+]=[N-])C(=O)OC, 18-membered ring): 90%

Structure (SMILES): COC(=O)[C@@H]1CCCCn2nncc2CCC(=O)NCCCC[C@H](N)C(=O)N1 [Boc-Lys(4-pentynoyl)-Lys(N3)-OMe]
- ring closure, yield over several steps (from C#CCCC(=O)NCCCC[C@H](NC(=O)OC(C)(C)C)C(=O)N[C@@H](CCCCN=[N+]=[N-])C(=O)OC, 18-membered ring): 37%

Structure (SMILES): COC(=O)[C@@H]1Cc2ccc(cc2)-n2nncc2CCC(=O)NCCCC[C@H](N)C(=O)N1 [Boc-Lys(4-pentynoyl)-Phe(4-N3)-OMe]
- ring closure, yield over several steps (from C#CCCC(=O)NCCCC[C@H](NC(=O)OC(C)(C)C)C(=O)N[C@@H](Cc1ccc(N=[N+]=[N-])cc1)C(=O)OC, 19-membered ring): 68%

Structure (SMILES): COC(=O)[C@@H]1CNC(=O)[C@H](Cc2ccccc2)n2nncc2CCCC(=O)NCCCC[C@H](N)C(=O)N1 [Boc-Lys(5-hexynoyl)-Dap(N3-Phe)-OMe]
- ring closure, yield over several steps (from C#CCCCC(=O)NCCCC[C@H](NC(=O)OC(C)(C)C)C(=O)N[C@@H](CNC(=O)[C@H](Cc1ccccc1)N=[N+]=[N-])C(=O)OC, 19-membered ring): 99%

Structure (SMILES): COC(=O)[C@@H]1CCCCn2nncc2CCCC(=O)NCCCC[C@H](N)C(=O)N1 [Boc-Lys(5-hexynoyl)-Lys(N3)-OMe]
- ring closure, yield over several steps (from C#CCCCC(=O)NCCCC[C@H](NC(=O)OC(C)(C)C)C(=O)N[C@@H](CCCCN=[N+]=[N-])C(=O)OC, 19-membered ring): 65%

Structure (SMILES): COC(=O)[C@@H]1CCCCNC(=O)[C@H](Cc2ccccc2)n2nncc2CCCC(=O)NCCCC[C@H](N)C(=O)N1 [Boc-Lys(5-hexynoyl)-Lys(N3-Phe)-OMe]
- ring closure, yield over several steps (from C#CCCCC(=O)NCCCC[C@H](NC(=O)OC(C)(C)C)C(=O)N[C@@H](CCCCNC(=O)[C@H](Cc1ccccc1)N=[N+]=[N-])C(=O)OC, 22-membered ring): 60%

Structure (SMILES): COC(=O)[C@@H]1CCCn2nncc2CCCC(=O)NCCCC[C@H](N)C(=O)N1 [Boc-Lys(5-hexynoyl)-Orn(N3)-OMe]
- ring closure, yield over several steps (from C#CCCCC(=O)NCCCC[C@H](NC(=O)OC(C)(C)C)C(=O)N[C@@H](CCCN=[N+]=[N-])C(=O)OC, 18-membered ring): 99%

Structure (SMILES): COC(=O)[C@@H]1CNC(=O)[C@H](Cc2ccccc2)n2nncc2CNC(=O)NCCCC[C@H](N)C(=O)N1 [Boc-Lys(CONH-propargyl)-Dap(N3-Phe)-OMe]
- ring closure, yield over several steps (from C#CCNC(=O)NCCCC[C@H](NC(=O)OC(C)(C)C)C(=O)N[C@@H](CNC(=O)[C@H](Cc1ccccc1)N=[N+]=[N-])C(=O)OC, 18-membered ring): 96%

Structure (SMILES): COC(=O)[C@@H]1CCCCn2nncc2CNC(=O)NCCCC[C@H](N)C(=O)N1 [Boc-Lys(CONH-propargyl)-Lys(N3)-OMe]
- ring closure, yield over several steps (from C#CCNC(=O)NCCCC[C@H](NC(=O)OC(C)(C)C)C(=O)N[C@@H](CCCCN=[N+]=[N-])C(=O)OC, 18-membered ring): 99%

Structure (SMILES): COC(=O)[C@@H]1CCCCNC(=O)[C@H](Cc2ccccc2)n2nncc2CNC(=O)NCCCC[C@H](N)C(=O)N1 [Boc-Lys(CONH-propargyl)-Lys(N3-Phe)-OMe]
- ring closure, yield over several steps (from C#CCNC(=O)NCCCC[C@H](NC(=O)OC(C)(C)C)C(=O)N[C@@H](CCCCNC(=O)[C@H](Cc1ccccc1)N=[N+]=[N-])C(=O)OC, 21-membered ring): 81%

Structure (SMILES): COC(=O)[C@@H]1CCCn2nncc2CNC(=O)NCCCC[C@H](N)C(=O)N1 [Boc-Lys(CONH-propargyl)-Orn(N3)-OMe]
- ring closure, yield over several steps (from C#CCNC(=O)NCCCC[C@H](NC(=O)OC(C)(C)C)C(=O)N[C@@H](CCCN=[N+]=[N-])C(=O)OC, 17-membered ring): 99%

Structure (SMILES): COC(=O)[C@@H]1CNC(=O)[C@H](Cc2ccccc2)n2nncc2CCC(=O)NCCC[C@H](N)C(=O)N1 [Boc-Orn(4-pentynoyl)-Dap(N3-Phe)-OMe]
- ring closure, yield over several steps (from C#CCCC(=O)NCCC[C@H](NC(=O)OC(C)(C)C)C(=O)N[C@@H](CNC(=O)[C@H](Cc1ccccc1)N=[N+]=[N-])C(=O)OC, 17-membered ring): 93%

Structure (SMILES): COC(=O)[C@@H]1CCCCn2nncc2CCC(=O)NCCC[C@H](N)C(=O)N1 [Boc-Orn(4-pentynoyl)-Lys(N3)-OMe]
- ring closure, yield over several steps (from C#CCCC(=O)NCCC[C@H](NC(=O)OC(C)(C)C)C(=O)N[C@@H](CCCCN=[N+]=[N-])C(=O)OC, 17-membered ring): 82%

Structure (SMILES): COC(=O)[C@@H]1CCCCNC(=O)[C@H](Cc2ccccc2)n2nncc2CCC(=O)NCCC[C@H](N)C(=O)N1 [Boc-Orn(4-pentynoyl)-Lys(N3-Phe)-OMe]
- ring closure, yield over several steps (from C#CCCC(=O)NCCC[C@H](NC(=O)OC(C)(C)C)C(=O)N[C@@H](CCCCNC(=O)[C@H](Cc1ccccc1)N=[N+]=[N-])C(=O)OC, 20-membered ring): 97%

Structure (SMILES): COC(=O)[C@@H]1CCCn2nncc2CCC(=O)NCCC[C@H](N)C(=O)N1 [Boc-Orn(4-pentynoyl)-Orn(N3)-OMe]
- ring closure, yield over several steps (from C#CCCC(=O)NCCC[C@H](NC(=O)OC(C)(C)C)C(=O)N[C@@H](CCCN=[N+]=[N-])C(=O)OC, 16-membered ring): 99%

Structure (SMILES): COC(=O)[C@@H]1Cc2ccc(cc2)-n2nncc2CCC(=O)NCCC[C@H](N)C(=O)N1 [Boc-Orn(4-pentynoyl)-Phe(4-N3)-OMe]
- ring closure, yield over several steps (from C#CCCC(=O)NCCC[C@H](NC(=O)OC(C)(C)C)C(=O)N[C@@H](Cc1ccc(N=[N+]=[N-])cc1)C(=O)OC, 18-membered ring): 62%

Structure (SMILES): COC(=O)[C@@H]1CNC(=O)[C@H](Cc2ccccc2)n2nncc2CCCC(=O)NCCC[C@H](N)C(=O)N1 [Boc-Orn(5-hexynoyl)-Dap(N3-Phe)-OMe]
- ring closure, yield over several steps (from C#CCCCC(=O)NCCC[C@H](NC(=O)OC(C)(C)C)C(=O)N[C@@H](CNC(=O)[C@H](Cc1ccccc1)N=[N+]=[N-])C(=O)OC, 18-membered ring): 46%

Structure (SMILES): COC(=O)[C@@H]1CCCCn2nncc2CCCC(=O)NCCC[C@H](N)C(=O)N1 [Boc-Orn(5-hexynoyl)-Lys(N3)-OMe]
- ring closure, yield over several steps (from C#CCCCC(=O)NCCC[C@H](NC(=O)OC(C)(C)C)C(=O)N[C@@H](CCCCN=[N+]=[N-])C(=O)OC, 18-membered ring): 99%

Structure (SMILES): COC(=O)[C@@H]1CCCCNC(=O)[C@H](Cc2ccccc2)n2nncc2CCCC(=O)NCCC[C@H](N)C(=O)N1 [Boc-Orn(5-hexynoyl)-Lys(N3-Phe)-OMe]
- ring closure, yield over several steps (from C#CCCCC(=O)NCCC[C@H](NC(=O)OC(C)(C)C)C(=O)N[C@@H](CCCCNC(=O)[C@H](Cc1ccccc1)N=[N+]=[N-])C(=O)OC, 21-membered ring): 86%

Structure (SMILES): COC(=O)[C@@H]1CCCn2nncc2CCCC(=O)NCCC[C@H](N)C(=O)N1 [Boc-Orn(5-hexynoyl)-Orn(N3)-OMe]
- ring closure, yield over several steps (from C#CCCCC(=O)NCCC[C@H](NC(=O)OC(C)(C)C)C(=O)N[C@@H](CCCN=[N+]=[N-])C(=O)OC, 17-membered ring): 99%

Structure (SMILES): COC(=O)[C@@H]1Cc2ccc(cc2)-n2nncc2CCCC(=O)NCCC[C@H](N)C(=O)N1 [Boc-Orn(5-hexynoyl)-Phe(4-N3)-OMe]
- ring closure, yield over several steps (from C#CCCCC(=O)NCCC[C@H](NC(=O)OC(C)(C)C)C(=O)N[C@@H](Cc1ccc(N=[N+]=[N-])cc1)C(=O)OC, 19-membered ring): 97%

Structure (SMILES): COC(=O)[C@@H]1CNC(=O)[C@H](Cc2ccccc2)n2nncc2CNC(=O)NCCC[C@H](N)C(=O)N1 [Boc-Orn(CONH-propargyl)-Dap(N3-Phe)-OMe]
- ring closure, yield over several steps (from C#CCNC(=O)NCCC[C@H](NC(=O)OC(C)(C)C)C(=O)N[C@@H](CNC(=O)[C@H](Cc1ccccc1)N=[N+]=[N-])C(=O)OC, 17-membered ring): 86%

Structure (SMILES): COC(=O)[C@@H]1CCCCn2nncc2CNC(=O)NCCC[C@H](N)C(=O)N1 [Boc-Orn(CONH-propargyl)-Lys(N3)-OMe]
- ring closure, yield over several steps (from C#CCNC(=O)NCCC[C@H](NC(=O)OC(C)(C)C)C(=O)N[C@@H](CCCCN=[N+]=[N-])C(=O)OC, 17-membered ring): 99%

Structure (SMILES): COC(=O)[C@@H]1CCCCNC(=O)[C@H](Cc2ccccc2)n2nncc2CNC(=O)NCCC[C@H](N)C(=O)N1 [Boc-Orn(CONH-propargyl)-Lys(N3-Phe)-OMe]
- ring closure, yield over several steps (from C#CCNC(=O)NCCC[C@H](NC(=O)OC(C)(C)C)C(=O)N[C@@H](CCCCNC(=O)[C@H](Cc1ccccc1)N=[N+]=[N-])C(=O)OC, 20-membered ring): 56%
